Assay results from article PMC9147192, “Small Molecule Arranged Thermal Proximity Coaggregation (smarTPCA)—A Novel Approach to Characterize Protein–Protein Interactions in Living Cells by Similar Isothermal Dose–Responses” (International Journal of Molecular Sciences, 2022).

Legend:
[1] = target: T1, PDIA6 (Homo sapiens, UniProt Q15084); assay: TPP-CCR in living HL-60 cells; format: cell-based
T1 construct: endogenous in cells; host or cells: HL-60 (ATCC CCL-240)
T1 sequence (Q15084 20-440): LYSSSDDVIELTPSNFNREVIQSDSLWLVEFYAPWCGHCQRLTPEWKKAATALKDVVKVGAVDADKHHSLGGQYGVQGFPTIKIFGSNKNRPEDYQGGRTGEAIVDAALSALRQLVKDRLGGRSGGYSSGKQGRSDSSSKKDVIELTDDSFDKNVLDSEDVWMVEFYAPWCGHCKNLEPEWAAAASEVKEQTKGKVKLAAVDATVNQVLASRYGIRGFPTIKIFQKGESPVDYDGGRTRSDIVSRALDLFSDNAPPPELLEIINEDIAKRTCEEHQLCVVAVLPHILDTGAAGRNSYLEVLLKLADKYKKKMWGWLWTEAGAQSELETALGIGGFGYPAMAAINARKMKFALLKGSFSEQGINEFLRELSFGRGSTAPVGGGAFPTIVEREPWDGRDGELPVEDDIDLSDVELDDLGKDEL
Text: (§1) Therefore, we performed TPP with compound concentration range (TPP-CCR) experiments according to published procedures. In brief, after preparing tryptic peptides from the non-denatured protein fractions (used for immunoblotting in the previous sections) applying the SP3 method, the peptides were labeled using TMT10plex, coding for inhibitor concentration, and the samples belonging to a TMT set were combined, offline high-pH fractionated, and analyzed by MS.
(§2) HL-60 cells were expanded as described above for CETSA and TPP-TR to 1.25 million cells per milliliter. […] A number of 2.5 million cells in 2 mL of medium were added to each tube and incubated (1 h, 37 °C). After centrifugation (300 rcf, 3 min, r.t.) and removing all of the supernating culture medium, the cells were washed once with 2 mL and once with 0.5 mL PBS (r.t.) by gently resuspending the cells, followed by centrifugation (300 rcf, 3 min, r.t.) and the complete removal of the supernatants.
(§3) After transferring the cells from the 2 mL Eppendorf tubes into correspondingly labeled PCR tubes (tube strips) using 100 µL of ice-cold PBS supplemented with protease inhibitors for resuspending the cells, the samples were further processed as described above for CETSA and TPP-TR, however, by applying a single treatment temperature of 51 °C.
(§4) For each sample set comprising ten compound concentration range samples, a same volume of the cell extracts containing the fraction of soluble, non-denatured proteins, corresponding to an average of 5 µg total protein, was used for further analysis. The calculated volume was respectively transferred into PCR tubes of a tube strip and supplemented with SDS sample buffer without DTT and bromophenol blue (final concentrations: 7.5% glycerol, 3% SDS, 37.5 mM Tris/HCl pH 7.0) and ddH2O to a final volume of 10 µL, respectively. Reduction and alkylation were performed by addition of 2.5 µL 100 mM dithiothreitol (DTT; incubation: 20 min, 56 °C, 1000 rpm in an Eppendorf ThermoMixer C, covering the tubes with aluminum foil to minimize condensation in the lids) and 3.33 µL 300 mM iodoacetamide (IAA; incubation: 15 min, r.t., in the dark without shaking), as well as 2.5 µL 100 mM DTT (incubation: 15 min, r.t., without shaking; quenching of excess of IAA). […] The beads were collected and washed (3× 200 µL 80% ethanol p.a. in HPLC-MS grade water, 1 × 200 µL acetonitrile (ACN; HPLC gradient grade)) using a device for handling of magnetic particles [patent US20100200405A1]. The ACN of the last washing step was completely removed by aspiration without letting the beads dry out.
(§5) Tryptic digest was performed on-bead by resuspending (use of an ultrasound bath may be required) the beads in 20 µL 50 mM TEAB in HPLC-MS grade water containing 0.1 µg Trypsin/Lys-C mix and 16.5 h incubation at 37 °C and 1000 rpm (Eppendorf ThermoMixer C, covering the tubes with aluminum foil to minimize condensation in the lids). Tryptic fragmentation of proteins was optimized by addition of another 0.1 µg of Trypsin/Lys-C mix in 2 µL 50 mM TEAB and 4 h incubation at 37 °C and 1000 rpm. After centrifugation for about 1 min in a table top centrifuge and magnetic concentration and retention of the beads at the inner tube wall, the supernatants containing the peptides were transferred into new PCR tubes (of tube strips) and were stored at −80 °C. The beads were discarded.
(§6) Half of the peptide samples (11 µL containing about 2.5 µg peptides) were transferred into new PCR tubes (of tube strips) and allowed to equilibrate to r.t. TMT labeling reagents were reconstituted as described for the TPP-TR samples, and 1 µL each was added to the reconstituted peptides according to the following scheme and homogenized immediately by aspiration and dispensing:
(§7) Peptide separation was performed as described above for the analysis of TPP-TR samples. […]

[2] = target: T2, CANX (Homo sapiens, UniProt P27824); assay: TPP-CCR in living HL-60 cells; format: cell-based
T2 construct: endogenous in cells; host or cells: HL-60 (ATCC CCL-240)
T2 sequence (P27824 21-592): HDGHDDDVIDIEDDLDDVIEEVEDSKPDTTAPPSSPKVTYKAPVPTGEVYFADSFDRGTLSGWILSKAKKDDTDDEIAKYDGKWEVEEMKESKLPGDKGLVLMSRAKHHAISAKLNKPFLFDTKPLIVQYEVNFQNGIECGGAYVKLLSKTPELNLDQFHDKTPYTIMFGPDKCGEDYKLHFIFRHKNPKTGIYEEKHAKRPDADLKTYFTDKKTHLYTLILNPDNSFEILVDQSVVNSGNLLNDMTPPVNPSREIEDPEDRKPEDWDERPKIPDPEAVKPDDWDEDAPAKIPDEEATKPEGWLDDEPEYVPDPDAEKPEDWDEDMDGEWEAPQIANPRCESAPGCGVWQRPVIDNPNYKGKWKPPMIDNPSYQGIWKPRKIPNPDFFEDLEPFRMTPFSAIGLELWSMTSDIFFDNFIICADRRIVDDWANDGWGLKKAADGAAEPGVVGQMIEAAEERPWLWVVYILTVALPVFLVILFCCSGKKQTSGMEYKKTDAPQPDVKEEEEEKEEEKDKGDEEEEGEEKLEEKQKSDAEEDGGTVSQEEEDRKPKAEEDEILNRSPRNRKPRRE
Text: as §1, §2, §3, §4, §5, §6, §7

[3] = living HL-60 cells, […] °C, TMT-MS

For `Cc1cnc(Nc2ccc(F)cc2Cl)nc1-c1c[nH]c(C(=O)N[C@H](CO)c2cccc(Cl)c2)c1` [ERK 11e], the Hill slope ([1]; TPP-CCR, living cells, PDIA6) was 1.33, the “Hill slope (PDIA6)” value [1, 3] was 1.33 and the EC50 ([1]; living HL-60 cells, […] °C, TMT-MS, read-out: pEC50 (PDIA6) (converted)) was 3.55 µM. For the same compound, the Hill slope ([2]; TPP-CCR, living cells, CANX) was 0.80, the EC50 [2, 3] was 0.871 µM and the “Hill slope (CANX)” value [2, 3] was 0.80.
